Data reported in patent US12226410B2, “Methods for enhancing cellular clearance of pathological molecules via activation of the cellular protein ykt6” (NORTHWESTERN UNIVERSITY, priority 2019, dated 2025).

Tests used:
a-syn = experiment: Sequential extraction/western blot of a-syn in FTI-treated A53T iPSn; type: cell-based, human; conditions: 5 nM, 7d
Protocol: (§1) FIGS. 6A, 6B, 6C, 6D, 6E, 6F, and 6G. FTIs enhance lysosomal GCase activity and reduce pathological a-syn by blocking ykt6 farnesylation. 6A) GCase activity in FTI-treated A53T iPSn at d80 (LNK-754 5 nM, 5d). 6B) GCase activity in FTI-treated A53T iPSn expressing empty vector (vect) or ykt6-CS (n=4). 6C) Lysosomal GCase activity was assessed in FTI-treated SHSY5Y cells transfected with scrambled or ykt6 shRNA (KD) (n=3). 6D) Quantification of Triton X-100 soluble (T-sol) a-syn by western blot from FTI-treated A53T iPSn (5 nM, 7d). *, non-specific band. (n=3). 6E) Quantification of insoluble a-syn from A53T iPSn as in D (n=3). 6F) Insoluble a-syn in FTI-treated H4 cells (5 nM, 5 days) transfected with either scrambled or ykt6 shRNA (n=6). 6G) Neuron viability was assessed in FTI-treated A53T iPSn (5 nM, 14d from d86-d100) by quantification of neurofilament protein. Right, neuron viability in FTI-treated A53T iPSn expressing empty vector or ykt6-CS (n=4). Values are the mean+/−SEM, *p<0.05, **p<0.01, ***p<0.001.
Sequential biochemical extraction for the analysis of pathological a-synuclein. […] Protein concentration was measured by BCA assay (Pierce). […]
Western blot analysis. […] The blots were washed as before and scanned/analyzed using an Odyssey infrared imaging system with Image Studio Software. […]

lysosomal GCase = experiment: Live cell GCase activity assay in A53T iPSn; type: cell-based, human
Protocol: as §1
Live cell GCase activity assay. […] Fluorescent signal was quantified over time and normalized to total cell volume using CellTag 700 (Licor) or lysosomal mass by using cascade dextran blue (#D-1976, Thermofisher). […]
Treatment of cultures with farnesyltransferase inhibitors. […] Cultures were harvested and analyzed as described in the above sections.

[1] = Pharmacokinetic studies of the FTI; type: in vivo, mice; conditions: single oral dose; data not shown
Source text: Farnesyltransferase inhibition activates ykt6 in vivo and reduces pathological aggregation in mice. We next sought to determine if FTIs could activate ykt6 in the brains of mice by first testing their effect in wild-type animals.

time to clearance from plasma [1]: ≤ 20 h
Compound: C#Cc1cccc(-c2cc(=O)n(C)c3ccc([C@](O)(c4ccc(Cl)cc4)c4cncn4C)cc23)c1 [LNK-754]
soluble and insoluble levels of a-syn (C20, syn303) (a-syn): reduced
lysosomal GCase activity (lysosomal GCase; 1 nM): partially rescued
lysosomal GCase activity (lysosomal GCase; 4 and 10 nM): near-complete rescue
blood-brain-barrier crossing [1]: could rapidly cross the blood-brain-barrier
